From patent US20260364079A1 (Principia Biopharma Inc., priority 2022, published 2026)

How the values were obtained:
[1] = biological target: BTK (Homo sapiens, UniProt Q06187); conditions: healthy volunteers, cited from earlier work
[2] = Phase 2 trial; cited from earlier work
[3] = tested on: 251 kinases; assay: broad kinase enzyme inhibition panel; type: biochemical; conditions: 1 μM
[4] = patients with chronic lymphatic leukemia; cited from earlier work
[5] = in vivo; cited from earlier work

Sequence of BTK (Q06187 whole entry): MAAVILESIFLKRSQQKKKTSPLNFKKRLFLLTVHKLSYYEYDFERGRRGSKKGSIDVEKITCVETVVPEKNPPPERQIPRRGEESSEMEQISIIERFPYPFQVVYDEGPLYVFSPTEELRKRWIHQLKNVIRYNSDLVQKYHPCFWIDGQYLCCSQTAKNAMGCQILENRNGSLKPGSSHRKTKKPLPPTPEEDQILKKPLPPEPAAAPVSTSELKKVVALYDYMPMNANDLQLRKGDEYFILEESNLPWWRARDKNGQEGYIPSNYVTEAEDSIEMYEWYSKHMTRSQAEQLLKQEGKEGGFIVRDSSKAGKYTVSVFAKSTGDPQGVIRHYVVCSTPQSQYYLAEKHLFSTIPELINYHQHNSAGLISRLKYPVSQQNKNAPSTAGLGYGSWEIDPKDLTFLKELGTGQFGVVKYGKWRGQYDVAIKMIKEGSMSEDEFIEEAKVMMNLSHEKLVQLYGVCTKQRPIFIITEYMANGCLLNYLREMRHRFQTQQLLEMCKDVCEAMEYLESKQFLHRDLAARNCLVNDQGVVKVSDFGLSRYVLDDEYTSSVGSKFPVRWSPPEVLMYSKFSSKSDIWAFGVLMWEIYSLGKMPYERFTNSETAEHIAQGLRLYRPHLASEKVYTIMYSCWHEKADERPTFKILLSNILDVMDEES

## C=CC(=O)Nc1cccc(Nc2nc(Nc3ccc(OCCOC)cc3)ncc2F)c1 [CC-292]
[1]; doses with 100% occupancy
  tolerability: well tolerated
[1]
  occupancy of the BTK enzyme: 100%

## C=CC(=O)N1CCC(CNc2ncnc(N)c2-c2ccc(Oc3ccccc3)cc2)CC1 [evobrutinib]
[2]
  efficacy in multiple sclerosis: demonstrated efficacy for multiple sclerosis

## C=CC(=O)N1CCC[C@@H](n2nc(-c3ccc(Oc4ccccc4)cc3)c3c(N)ncnc32)C1 [ibrutinib]
[3]
  number of kinases inhibited: 21 kinases
[4]
  sequential episodes of severe autoimmune hemolytic anemia and ITP: ceased after initiation of treatment with ibrutinib
[5]
  activity in other hematological malignancies: demonstrated activity in other hematological malignancies
